This note sets out measurements from patent US20220218667A1, “DUAL INHIBITORS OF SOLUBLE EPOXIDE HYDROLASE AND METHODS OF USE THEREOF” (OROX Biosciences, Inc., priority 2019, published 2022).

Series [1] has as its system C57BL/6 mice, bleomycin-induced fibrotic lung injury. As to the kind of experiment: Example 2: therapeutic treatment in bleomycin-induced idiopathic pulmonary fibrosis mouse model. Type of series: in vivo. The note with it: OX1 60 mg/kg, Pirfenidone 100 mg/kg. From the text:
The purpose of this study is to induce fibrotic lung injury in mice via a single administration of a glycopeptide antibiotic, bleomycin, in order to evaluate the efficacy of dual sEH and COX-2 inhibitor OX-1 in treating and reducing the symptoms associated with idiopathic pulmonary fibrosis. Pirfenidone, standard of care for the treatment of idiopathic pulmonary fibrosis, was used as a reference compound.
Male C57BL/6 mice from Charles River Laboratories aging of 7-8 weeks and weighing around 18-22 g at the time of their enrollment were used in the study.
Doses of OX1 at 60 mg/kg, Pirfenidone at 100 mg/kg, and the disease inducer Bleomycin at 1.5 mg/kg were used. A dosing rate of 10 mL/kg (approximately 0.2 mL/mouse according to their body weight) of OX1 was administered orally once daily to the mice. The mice received OX1 at 60 mg/kg once daily. A dosing rate of 10 mL/kg (approximately 0.2 mL/mouse according to their body weight) of Pirfenidone solution was administered once daily to the mice of the groups receiving Pirfenidone orally at the dose of 100 mg/kg once daily. A single intratracheal instillation of approximately 50 μL (1.5 mg/kg with a dosing rate of 2.5 mL/kg in sterile 0.9% saline) of bleomycin solution was administered to all mice except the sham group on day 0. Animals in the Sham group received one intratracheal instillation of approximately 50 μL of 0.9% saline solution on Day 0 and returned to their respective cages.
Treatment with the vehicle or test articles were initiated and administered starting on day 7 to day 21 as scheduled and described in Table 1 above. All test articles, reference compound and vehicle were administered to animals orally once daily. Food and water were given ad libitum. Daily observations of the behavioral and general health status of the animals were done. Daily body weight was also measured.
Prior to physiological assessment, all mice were introduced to the plethysmograph chamber environment. After the acclimatization period, the functional respiratory parameters were assessed by the whole-body plethysmograph on Day 0 (before bleomycin instillation), 7, 14 and 21 post-bleomycin instillation. Each measurement was performed with a mouse placed alone in an unrestrained whole-body plethysmography chamber (Buxco Electronics Inc.) to measure respiratory functions. The functional respiratory parameters analyzed included; the respiratory rate, the PenH ([…]) and the inspiratory/expiratory time measurements.
On the surgery day (Day 21), the mice were anesthetized, instrumented and arterial blood oxygen saturation (SpO2) was recorded. Blood oxygen saturation was read off of the pulse oximeter (STARR Life Sciences MouseOx Plus system, Oakmont, Pa.) with the probe attached to the right thigh of the animal. The saturation values were measured in percentage (%). At the moment of the sacrifice, the mouse thoracic cavity was open to expose the lungs and all mice were euthanatized by exsanguination. The trachea was then connected to the cannula of a perfusion system. The left lung was clamped while 1.5 mL of cold PBS solution (3×500 μL) was injected by the trachea to perform a bronchoalveolar lavage fluid (BALF) on the right lobe of the lungs and was collected on ice for further analysis. The total cells count with cells differential, the cytokine levels including TNF-α, TGF-β, IL-4, IL-5 and IL-17a, the total protein content as well as the soluble collagen were assessed in the BALF samples. Once collected, 300 μL of the BALF was transferred in an EDTA tube, kept at 2-4° C. and shipped to Biovet Inc. for the total cells count with cells differential analysis. The remaining BALF sample was centrifuged at 1200 rpm for 10 minutes at 4° C. to remove cells. The supernatant was aliquots and frozen at−80° C. until analysis was performed. […]

In series [2] the test system is Human primary lung fibroblasts from IPF donors. As to the kind of experiment: Fibroblast-to-Myofibroblast Transition (FMT) assay. Type of series: cell-based. The note with it: for IC50: Homo sapiens, Primary lung fibroblast, 1.25 ng/ml TGF-b1. Here is the method:
OX1 was evaluated in a primary cell-based Fibroblast-to-Myofibroblast Transition (FMT) assay; an in vitro assay relevant to idiopathic pulmonary fibrosis (TPF). Human primary lung fibroblasts from three (3) IPF donors (IPF06, IPF07, and IPF08) were triggered using 1.25 ng/ml TGF-b1 to induce FMT, one hour after application of compounds. OX1 and Nintedanib (approved drug for TPF) were applied in […] in semi-log dilutions with the top concentration at […] to construct eight (8)-point concentration response curve (CRC) in biological duplicates (ie. on two (2) different cell plates at on (1) occasion). SB525334 was used at […] in 0.1% DMSO as a positive validation control. The readouts at 72 hours were high content analysis (HCA) for aSMA expression and DAPI staining for nuclear count as measurement of potential cytotoxic effects.

Structures are written as SMILES. Several values for one entry are separate records, joined by “and”; a condition that tells them apart may be missing. Identical values can stand only once. Like-named read-outs stand apart in the source and are kept apart here.

`NS(=O)(=O)c1ccc(-n2nc(CCCNC(=O)Nc3ccc(C(F)(F)F)cc3)cc2-c2ccccc2)cc1` [OX1, 4-(5-phenyl-3-{3-[3-(4-trifluoromethyl-phenyl)-ureido]-propyl}-pyrazol-1-yl)-benzenesulfonamide]: in series [1] (BALF day 21, mean), the “Eosinophils (cells)” value was determined as 580 cells; the “Macrophages (cells)” value turned out to be 204879 cells; the “Soluble collagen” value is 60.4 µg and 60.38 µg; the “Total BALF cytokines (pg) IL-4” value stood at 0.09 pg. In series [1] (BALF day 21, mean), the “Total BALF cytokines (pg) IL-5” value is 2.49 pg; the “Total BALF cytokines (pg) IL-6” value was determined as 9.50 pg; the “Total TGFβ” value is 299.3 pg and 299.31 pg. Moreover, the “Percent Survival (%)” value in series [1] (BLM mice, oral once daily day 7 to 21) is given as 77.8%. The “Body weight changes from day 7 (%)” value in series [1] (mean, BLM mice, oral once daily day 7 to 21) was found to be 11.63%. In addition, the “Loss of Nuclei” value in series [2] is “Yes”. In addition, the IC50 – broadly, the concentration that inhibits the measured activity by half – in series [2] (donor IPF06, readout at 72 hours, read-out: αSMA inhibition IC50 (μM), Patient Identifier IPF06) came to 1 µM. In series [2] (donor IPF07, readout at 72 hours, read-out: αSMA inhibition IC50 (μM), Patient Identifier IPF07), the IC50 stood at 1.3 µM. Moreover, the IC50 in series [2] (donor IPF08, readout at 72 hours, read-out: αSMA inhibition IC50 (μM), Patient Identifier IPF08) worked out at 1 µM. The half-inhibitory concentration (IC50) in series [2] (mean of three IPF donors, 72 hours, read-out: αSMA inhibition IC50 (μM), Mean) stood at 1.1 µM.
